Key:
Type in all cases: cell-based
[1] = tested on: E. coli DH5α; assay: Antibacterial activity: MIC and growth curve against E. coli DH5α in 96-well plate; details: minimal inhibitory concentration against E. coli DH5α; 96-well plate, 5×10^5 CFU/mL, 37° C., judged after 8 h
How it was run: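 Log-phase DH5α (OD600 about 0.5, 37° C, 185 rpm in LB) was pelleted, resuspended in fresh LB and seeded at 5×10^5 CFU/mL with recombinant protein at 50, 25 and 12.5 μg/mL (two-fold series), in triplicate. Plates were shaken at 175 rpm, 37° C, and OD600 was read every 30 min. MIC was the lowest concentration with no growth.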

[2] = tested on: E. coli BL21; assay: MIC against Gram-negative bacteria: E. coli BL21; details: E. coli BL21; 5×10^5 CFU/mL; 10 h cultivation at 37° C.
How it was run: (§1)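 Growth inhibition by human EGF domain proteins was scored in LB liquid culture seeded at 5×10^5 CFU/mL. Protein was applied as a two-fold dilution series in triplicate, with shaking incubation at 37° C; MIC is the lowest concentration giving no growth.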

[3] = tested on: Pseudomonas aeruginosa; assay: MIC against Gram-negative bacteria: Pseudomonas aeruginosa; details: Pseudomonas aeruginosa; 5×10^5 CFU/mL; 10 h cultivation at 37° C.
How it was run: as §1

[4] = tested on: Klebsiella pneumonia; assay: MIC against Gram-negative bacteria: Klebsiella pneumonia; details: Klebsiella pneumonia; 5×10^5 CFU/mL; 10 h cultivation at 37° C.
How it was run: as §1

[5] = tested on: Enterobacter cloacae; assay: MIC against Gram-negative bacteria: Enterobacter cloacae; details: Enterobacter cloacae; 5×10^5 CFU/mL; 10 h cultivation at 37° C.
How it was run: as §1

[6] = tested on: Aeromonas hydrophila; assay: MIC against Gram-negative bacteria: Aeromonas hydrophila; details: Aeromonas hydrophila; 5×10^5 CFU/mL; 10 h cultivation at 37° C.
How it was run: as §1

[7] = tested on: Citrobacter diversus; assay: MIC against Gram-negative bacteria: Citrobacter diversus; details: Citrobacter diversus; 5×10^5 CFU/mL; 10 h cultivation at 37° C.
How it was run: as §1

[8] = tested on: Moraxella catarrhalis; assay: MIC against Gram-negative bacteria: Moraxella catarrhalis; details: Moraxella catarrhalis; 5×10^5 CFU/mL; 10 h cultivation at 37° C.
How it was run: as §1

[9] = tested on: Proteus mirabilis; assay: MIC against Gram-negative bacteria: Proteus mirabilis; details: Proteus mirabilis; 5×10^5 CFU/mL; 10 h cultivation at 37° C.
How it was run: as §1

[10] = tested on: Proteus vulgaris; assay: MIC against Gram-negative bacteria: Proteus vulgaris; details: Proteus vulgaris; 5×10^5 CFU/mL; 10 h cultivation at 37° C.
How it was run: as §1

[11] = tested on: Serratia marcescens; assay: MIC against Gram-negative bacteria: Serratia marcescens; details: Serratia marcescens; 5×10^5 CFU/mL; 10 h cultivation at 37° C.
How it was run: as §1

Row | Substance | MIC [1] | MIC against E. coli BL21 [2] | MIC against P. aeruginosa [3] | MIC against K. pneumonia [4] | MIC against E. cloacae [5] | MIC against A. hydrophila [6] | MIC against C. diversus [7] | MIC against M. catarrhalis [8] | MIC against P. mirabilis [9] | MIC against P. vulgaris [10] | MIC against S. marcescens [11]
1 | PRT1446 (FLSPCVDDCGPYGQCKLLRTHNYLYAACECKAGWRGWGCT; listed as Homo sapiens) | 12.5 µg/mL | 12.5 µg/mL | 25 µg/mL | 25 µg/mL | 12.5 µg/mL | 25 µg/mL | 12.5 µg/mL | 12.5 µg/mL | 12.5 µg/mL | 25 µg/mL | 12.5 µg/mL
2 | PRT1447 (GCGAGRWGPGCTKECPGCLHGGVCHDHDGECVCPPGFTGTRCE; listed as Homo sapiens) | 100 µg/mL | 25 µg/mL | 12.5 µg/mL | 12.5 µg/mL | 12.5 µg/mL | 50 µg/mL | 12.5 µg/mL | 50 µg/mL | 25 µg/mL | 12.5 µg/mL | 25 µg/mL
3 | PRT1448 (ACREGRFGQSCQEQCPGISGCRGLTFCLPDPYGCSCGSGWRGSQCQ; listed as Homo sapiens) | 25 µg/mL | 50 µg/mL | 12.5 µg/mL | 25 µg/mL | 50 µg/mL | 12.5 µg/mL | 25 µg/mL | 50 µg/mL | 25 µg/mL | 12.5 µg/mL | 25 µg/mL
4 | PRT1449 (ACAPGHFGADCRLQCQCQNGGTCDRFSGCVCPSGWHGVHCE; listed as Homo sapiens) | 50 µg/mL | 25 µg/mL | 12.5 µg/mL | 50 µg/mL | 12.5 µg/mL | 25 µg/mL | 50 µg/mL | 12.5 µg/mL | 50 µg/mL | 12.5 µg/mL | 50 µg/mL
5 | PRT1450 (VPSNCDCLNGGTCVSNKYFSNIHWCNCPKKFGGQHCE; listed as Homo sapiens) | 12.5 µg/mL | 25 µg/mL | 50 µg/mL | 12.5 µg/mL | 25 µg/mL | 50 µg/mL | 25 µg/mL | 12.5 µg/mL | 25 µg/mL | 12.5 µg/mL | 25 µg/mL
6 | PRT1451 (EARWCSECHSNATCTEDEAVTTCTCQEGFTGDGLTCV; listed as Homo sapiens) | 25 µg/mL | 12.5 µg/mL | 25 µg/mL | 12.5 µg/mL | 25 µg/mL | 12.5 µg/mL | 25 µg/mL | 12.5 µg/mL | 12.5 µg/mL | 12.5 µg/mL | 12.5 µg/mL
7 | PRT1453 (DVDECAEPGLSHCHALATCVNVVGSYLCVCPAGYRGDGWHCE; listed as Homo sapiens) | 25 µg/mL | 12.5 µg/mL | 25 µg/mL | 50 µg/mL | 25 µg/mL | 12.5 µg/mL | 25 µg/mL | 50 µg/mL | 12.5 µg/mL | 25 µg/mL | 12.5 µg/mL
8 | PRT1454 (DVNECFYEELNACSGRELCANLEGSYWCVCHQEAPATSPRKLNLEWEDCP; listed as Homo sapiens) | 25 µg/mL | 12.5 µg/mL | 12.5 µg/mL | 25 µg/mL | 50 µg/mL | 25 µg/mL | 12.5 µg/mL | 50 µg/mL | 12.5 µg/mL | 25 µg/mL | 50 µg/mL
9 | PRT1455 (DWDECVDSAEHDCSPAAWCINLEGSYTCQCRTTRDATPSRAGRACE; listed as Homo sapiens) | 25 µg/mL | 12.5 µg/mL | 25 µg/mL | 25 µg/mL | 12.5 µg/mL | 25 µg/mL | 12.5 µg/mL | 12.5 µg/mL | 12.5 µg/mL | 12.5 µg/mL | 25 µg/mL
10 | PRT1456 (DYDECERKEDDCVPGTSCRNTLGSFTCSCEGGAPDFPVEYSE; listed as Homo sapiens) | 12.5 µg/mL | 25 µg/mL | 12.5 µg/mL | 50 µg/mL | 25 µg/mL | 12.5 µg/mL | 25 µg/mL | 50 µg/mL | 12.5 µg/mL | 12.5 µg/mL | 12.5 µg/mL
11 | PRT1457 (CQCHGHADNCDTTSQPYRCLCSQESFTEGLHCDRCLPLYNDKPFRQGDQVYAFNCKP; listed as Homo sapiens) | 12.5 µg/mL | 25 µg/mL | 12.5 µg/mL | 100 µg/mL | 12.5 µg/mL | 12.5 µg/mL | 12.5 µg/mL | 12.5 µg/mL | 25 µg/mL | 12.5 µg/mL | 25 µg/mL
12 | PRT1458 (CNCHLSGALNETCHLVTGQCFCKQFVTGSKCDACVPSASHLDVNNLLGCSK; listed as Homo sapiens) | 12.5 µg/mL | 12.5 µg/mL | 25 µg/mL | 12.5 µg/mL | 25 µg/mL | 50 µg/mL | 25 µg/mL | 25 µg/mL | 12.5 µg/mL | 25 µg/mL | 50 µg/mL
13 | PRT1460 (CDCDTVGTRNGSILCDQIGGQCNCKRHVSGRQCNQCQNGFYNLQELDPDGCSP; listed as Homo sapiens) | 12.5 µg/mL | 25 µg/mL | 25 µg/mL | 50 µg/mL | 25 µg/mL | 12.5 µg/mL | 25 µg/mL | 50 µg/mL | 12.5 µg/mL | 25 µg/mL | 50 µg/mL
14 | PRT1461 (CNCNTSGTVDGDITCHQNSGQCKCKANVIGLRCDHCNFGFKFLRSFNDVGCEP; listed as Homo sapiens) | 25 µg/mL | 12.5 µg/mL | 50 µg/mL | 12.5 µg/mL | 25 µg/mL | 12.5 µg/mL | 25 µg/mL | 12.5 µg/mL | 25 µg/mL | 12.5 µg/mL | 25 µg/mL
15 | PRT1462 (CQCNLHGSVNKFCNPHSGQCECKKEAKGLQCDTCRENFYGLDVTNCKA; listed as Homo sapiens) | 12.5 µg/mL | 25 µg/mL | 100 µg/mL | 12.5 µg/mL | 12.5 µg/mL | 12.5 µg/mL | 25 µg/mL | 12.5 µg/mL | 25 µg/mL | 12.5 µg/mL | 25 µg/mL
